Consider ten compounds from patent US20200308171A1, “BIFUNCTIONAL INHIBITORS WITH EGFR HAVING A E3 UBIQUITIN LIGASE MOIETY” (Hoffmann-La Roche Inc., priority 2017, published 2020).

Each structure is given as a SMILES string. Where a name gives a salt, the structure may show the parent alone.

T1 sequence (P00533 25-1210 T790M/C797S/L858R): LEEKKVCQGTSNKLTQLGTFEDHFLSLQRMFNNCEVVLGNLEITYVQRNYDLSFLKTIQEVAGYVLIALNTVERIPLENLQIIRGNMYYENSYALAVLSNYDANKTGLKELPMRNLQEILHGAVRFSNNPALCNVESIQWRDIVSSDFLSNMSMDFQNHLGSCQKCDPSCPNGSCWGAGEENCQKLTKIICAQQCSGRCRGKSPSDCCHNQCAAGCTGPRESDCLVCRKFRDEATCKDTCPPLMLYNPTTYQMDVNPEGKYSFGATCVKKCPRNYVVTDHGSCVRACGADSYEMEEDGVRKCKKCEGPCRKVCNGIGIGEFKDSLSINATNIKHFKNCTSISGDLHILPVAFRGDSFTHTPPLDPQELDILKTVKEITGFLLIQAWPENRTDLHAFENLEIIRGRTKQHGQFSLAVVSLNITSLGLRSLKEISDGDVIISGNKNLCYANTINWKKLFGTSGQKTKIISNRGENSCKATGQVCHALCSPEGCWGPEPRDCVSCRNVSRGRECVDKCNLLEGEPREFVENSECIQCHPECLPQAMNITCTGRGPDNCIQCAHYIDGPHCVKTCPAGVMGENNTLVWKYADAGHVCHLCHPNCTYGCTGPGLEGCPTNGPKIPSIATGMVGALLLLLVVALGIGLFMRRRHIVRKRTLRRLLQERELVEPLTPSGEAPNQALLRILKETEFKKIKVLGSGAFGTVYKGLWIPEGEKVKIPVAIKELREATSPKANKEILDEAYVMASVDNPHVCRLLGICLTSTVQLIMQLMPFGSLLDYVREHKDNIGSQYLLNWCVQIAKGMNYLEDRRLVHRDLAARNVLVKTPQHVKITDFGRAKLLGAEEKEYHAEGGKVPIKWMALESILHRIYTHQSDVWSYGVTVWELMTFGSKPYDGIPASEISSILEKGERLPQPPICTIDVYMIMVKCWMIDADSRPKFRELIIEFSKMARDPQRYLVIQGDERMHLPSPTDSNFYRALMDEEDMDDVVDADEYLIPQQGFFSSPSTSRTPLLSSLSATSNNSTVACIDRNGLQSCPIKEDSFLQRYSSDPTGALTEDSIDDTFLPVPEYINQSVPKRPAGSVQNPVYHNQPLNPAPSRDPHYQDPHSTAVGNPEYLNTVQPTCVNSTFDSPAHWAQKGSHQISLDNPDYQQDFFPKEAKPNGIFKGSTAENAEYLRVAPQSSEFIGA

The assay addresses T1, EGFR T790M/L858R/C797S (Homo sapiens, UniProt P00533, C797S/L858R/T790M).
T1 construct: expressed in transfected cells; host or cells: BaF3 (murine pro-B) cells stably transduced with pCDH lentiviral vector, PGK promoter
As to the kind of experiment: EGFR Degradation Assay (Cellular), FRET quantification of total EGFR. The format is cell-based. The note with it: BaF3 EGFR mutant cell line (EGFR T790M/L858R/C797S); 4-hour incubation; total EGFR FRET kit; top concentration 1 μM, 11 points; read-out: IC50 [nM] mutant EGFR degradation. As to the method:
EGFR Degradation Assay (Cellular)
The BaF3 parental line was purchased from DSMZ and grown in RPMI media supplemented with 10% FBS and 10 ng/mL interleukin 3 (IL-3) (Thermo Fisher Scientific). EGFR mutants ([…]) were cloned into the pCDH lentiviral vector (SystemBio) under the control of a PGK promoter and confirmed by DNA sequencing. The resulting gene expression vector for each mutant was mixed with packaging vectors and cotransfected into 2×10E6 HEK293T cells (ATCC) in 10 mL of DMEM media to generate lentiviral particles according to the manufacturers protocol (Origene).
Three days post-transfection, the viral supernatant was harvested and filtered. In one well of a 12-well plate, 0.5 mL of viral supernatant was added to 2E6 Ba/F3 cells contained in 1.5 mL of RPMI media including 10% FBS, 10 ng/mL IL-3, and 5 μg/mL polybrene (Invitrogen). The plate was centrifuged at 2,000 rpm for 1 hour at room temperature and infected cells were kept in a tissue culture incubator overnight at 37° C. The cells were washed once in fresh BaF3 media and reseeded at 0.5E6 cells/well of a 12-well plate in media supplemented with 0.5 μg/mL puromycin. The cells were maintained in this media for 3 weeks. IL-3-independent, EGFR mutant transformed cells were routinely maintained in RPMI medium supplemented with 10% FBS.
RPMI 1640 no-phenol red medium and fetal bovine serum (FBS) were purchased from Gibco (Grand Island, N.Y., USA). EGFR total kit and EGFR phospho-Y1068 kit were purchased from Cisbio (Bedford, Mass., USA). BaF3 EGFR mutant cell lines (EGFR T790M/L858R/C797S) cell line was generated in house, according to the protocol reported above. Cell culture flasks and 384-well microplates were acquired from VWR (Radnor, Pa., USA).
EGFR degradation was determined based on quantification of FRET signal using EGFR total kit. The FRET signal detected correlates with total EGFR protein level in cells. Briefly, test compounds were added to the 384-well plate from a top concentration of 1 μM with 11 points, half log titration in quadruplicates. Then, BaF3 EGFR mutant cell lines (EGFR T790M/L858R/C797S) were added into 384-well plates at a cell density of 10000 cells per well. The plates were kept at 37° C. with 5% CO2 for 4 hours. After 4-hour incubation, 4× lysis buffer was added to the cells, and then microplate was agitated on plate shaker at 500 rpm for 30 minutes at room temperature. Next, total EGFR antibody solution was added to the cells and the cells were incubated for another 4 hours at room temperature. Finally, FRET signal was acquired on EnVision™ Multilabel Reader (PerkinElmer, Santa Clara, Calif., USA). The cells treated in the absence of the test compound were the negative control and lysis buffer with antibody solution only were the positive control.
As to `COC1CCN(c2nccc(Nc3cc4c(cn3)c(C(=O)NC3CCN(C(=O)CCCCCNc5cccc6c5C(=O)N(C5CCC(=O)NC5=O)C6=O)CC3)cn4C(C)C)n2)CC1` (racemic) [Example 1, N-[1-[6-[[2-[(3RS)-2,6-Dioxo-3-piperidyl]-1,3-dioxo-isoindolin-4-yl]amino]hexanoyl]-4-piperidyl]-1-isopropyl-6-[[2-(4-methoxy-1-piperidyl)pyrimidin-4-yl]amino]pyrrolo[3,2-c]pyridine-3-carboxamide], the DC50 amounted to 59 nM. For `CO[C@H]1CCN(c2nccc(Nc3cc4c(cn3)c(C(=O)NC3CCN(CCC5CCN(c6ccc7c(c6)C(=O)N(C6CCC(=O)NC6=O)C7=O)CC5)CC3)cn4C(C)C)n2)C[C@H]1F` (mixture of isomers) [Example 16, N-[1-[2-[1-[2-[(3RS)-2,6-Dioxo-3-piperidyl]-1,3-dioxo-isoindolin-5-yl]-4-piperidyl]ethyl]-4-piperidyl]-6-[[2-[(3R,4S)-3-fluoro-4-methoxy-1-piperidyl]pyrimidin-4-yl]amino]-1-isopropyl-pyrrolo[3,2-c]pyridine-3-carboxamide] the value was 28 nM; for `CO[C@H]1CCN(c2nccc(Nc3cc4c(cn3)c(C(=O)NC3CCN(C(=O)N5CCN(CCCCNc6cccc7c6C(=O)N(C6CCC(=O)NC6=O)C7=O)CC5)CC3)cn4C3CCCC3)n2)C[C@H]1F` (mixture of isomers) [Example 13, 1-Cyclopentyl-N-[1-[4-[4-[[2-[(3RS)-2,6-dioxo-3-piperidyl]-1,3-dioxo-isoindolin-4-yl]amino]butyl]piperazine-1-carbonyl]-4-piperidyl]-6-[[2-[(3R,4S)-3-fluoro-4-methoxy-1-piperidyl]pyrimidin-4-yl]amino]pyrrolo[3,2-c]pyridine-3-carboxamide], 30 nM. Turning to `COC1CCN(c2nccc(Nc3cc4c(cn3)c(C(=O)NC3CCN(CCCCCCNc5cccc6c5C(=O)N(C5CCC(=O)NC5=O)C6=O)CC3)cn4C(C)C)n2)CC1(F)F` (racemic) [Example 3, 6-[[2-[(4RS)-3,3-Difluoro-4-methoxy-1-piperidyl]pyrimidin-4-yl]amino]-N-[1-[6-[[2-[(3RS)-2,6-dioxo-3-piperidyl]-1,3-dioxo-isoindolin-4-yl]amino]hexyl]-4-piperidyl]-1-isopropyl-pyrrolo[3,2-c]pyridine-3-carboxamide], the DC50 stood at 44 nM. `CO[C@H]1CCN(c2nccc(Nc3cc4c(cn3)c(C(=O)NC3CCN(CCCC5CCN(c6cccc7c6C(=O)N(C6CCC(=O)NC6=O)C7=O)CC5)CC3)cn4C(C)C)n2)C[C@H]1F` (mixture of isomers) [Example 12, N-[1-[3-[1-[2-[(3RS)-2,6-Dioxo-3-piperidyl]-1,3-dioxo-isoindolin-4-yl]-4-piperidyl]propyl]-4-piperidyl]-6-[[2-[(3R,4S)(3S,4R)-3-fluoro-4-methoxy-1-piperidyl]pyrimidin-4-yl]amino]-1-isopropyl-pyrrolo[3,2-c]pyridine-3-carboxamide trifluoroacetate]: the DC50 amounted to 69 nM. Regarding `CO[C@H]1CCN(c2nccc(Nc3cc4c(cn3)c(C(=O)NC3CCN(CCC5CN(c6cccc7c6C(=O)N(C6CCC(=O)NC6=O)C7=O)C5)CC3)cn4C(C)C)n2)C[C@H]1F` (mixture of isomers) [Example 23, N-[1-[2-[1-[2-[(3RS)-2,6-Dioxo-3-piperidyl]-1,3-dioxo-isoindolin-4-yl]azetidin-3-yl]ethyl]-4-piperidyl]-6-[[2-[(3R,4S)-3-fluoro-4-methoxy-1-piperidyl]pyrimidin-4-yl]amino]-1-isopropyl-pyrrolo[3,2-c]pyridine-3-carboxamide], the DC50 was 8 nM. For `CO[C@H]1CCN(c2nccc(Nc3cc4c(cn3)c(C(=O)NC3CCN(CCCCCCNc5cccc6c5C(=O)N(C5CCC(=O)NC5=O)C6=O)CC3)cn4C(C)C)n2)C[C@H]1F` (mixture of isomers) [Example 5, N-[1-[6-[[2-[(3RS)-2,6-Dioxo-3-piperidyl]-1,3-dioxo-isoindolin-4-yl]amino]hexyl]-4-piperidyl]-6-[[2-[(3R,4S)(3S,4R)-3-fluoro-4-methoxy-1-piperidyl]pyrimidin-4-yl]amino]-1-isopropyl-pyrrolo[3,2-c]pyridine-3-carboxamide] the value was 28 nM; for `COC1CCN(c2nccc(Nc3cc4c(cn3)c(N3CCC(C(=O)NC5CCN(CCCCCCNc6cccc7c6C(=O)N(C6CCC(=O)NC6=O)C7=O)CC5)C3)nn4C(C)C)n2)CC1` (racemic) [Example 6, (3RS)—N-[1-[6-[[2-[(3RS)-2,6-Dioxo-3-piperidyl]-1,3-dioxo-isoindolin-4-yl]amino]hexyl]-4-piperidyl]-1-[1-isopropyl-6-[[2-(4-methoxy-1-piperidyl)pyrimidin-4-yl]amino]pyrazolo[4,3-c]pyridin-3-yl]pyrrolidine-3-carboxamide], 46 nM; for `CO[C@H]1CCN(c2nccc(Nc3cc4c(cn3)c(C(=O)NC3CCN(CCC[C@H]5CC[C@H](Nc6cccc7c6C(=O)N(C6CCC(=O)NC6=O)C7=O)CC5)CC3)cn4C(C)C)n2)C[C@H]1F` (mixture of isomers) [Example 20, N-[1-[3-[4-[[2-[(3RS)-2,6-Dioxo-3-piperidyl]-1,3-dioxo-isoindolin-4-yl]amino]cyclohexyl]propyl]-4-piperidyl]-6-[[2-[(3R,4S)-3-fluoro-4-methoxy-l-piperidyl]pyrimidin-4-yl]amino]-1-isopropyl-pyrrolo[3,2-c]pyridine-3-carboxamide], 15 nM.

With `CO[C@H]1CCN(c2nccc(Nc3cc4c(cn3)c(C(=O)NC3CCN(CCCCCNc5cccc6c5C(=O)N(C5CCC(=O)NC5=O)C6=O)CC3)cn4C(C)C)n2)C[C@H]1F` (mixture of isomers) [Example 9, N-[1-[5-[[2-[(3RS)-2,6-Dioxo-3-piperidyl]-1,3-dioxo-isoindolin-4-yl]amino]pentyl]-4-piperidyl]-6-[[2-[(3R,4S)-3-fluoro-4-methoxy-1-piperidyl]pyrimidin-4-yl]amino]-1-isopropyl-pyrrolo[3,2-c]pyridine-3-carboxamide], the DC50 is 26 nM.
